Where two headings read alike, the source gives them in different places.
Key:
P. falciparum 3D7 = test: P. falciparum growth inhibition assay, second round (SYBR Green I, ICEstimator); assay type: cell-based, Plasmodium falciparum
[1] = in vivo, cited from earlier work
[2] = system: Plasmodium falciparum 3D7; test: Plasmodium falciparum susceptibility assay, first round (SYBR Green I); assay type: cell-based
Plasmodium falciparum W2 = test: as above; assay type: cell-based
CHO-K1 cells = test: In vitro micronucleus assay, short-term exposure; settings: short-term, with S9 mix, positive control 5 μg/mL
Protocol: All the assays were conducted in duplicate. The CHO-K1 cells, suspended in McCoy's 5A medium, were transferred into Labteck wells at a concentration of 100,000 cells/mL, and incubated for 24 hours at 37° C. in CO2 (5%).
When the test was performed without metabolic activation, the test substances were added into cell cultures at concentrations previously defined.
When the assay was performed in the presence of metabolic activation, S9 mix metabolizing mixture was added to cell cultures at a concentration of 10%. Then the test substances were added to the cell cultures at concentrations previously defined.
After 3 hours of incubation at 37° C. in CO2 (5%), the culture medium was removed, the cells were rinsed with phosphate buffered saline (PBS), and then returned to culture in McCoy's 5A medium containing […] of cytochalasin B. After a 21-hour incubation period at 37° C., cells were rinsed with phosphate buffered saline (PBS), fixed with methanol and stained with 10% Giemsa for 20 minutes.
The analysis of results was performed under a microscope at ×1000 magnification. The antiproliferative activity of test substances was estimated by counting the number of binucleated cells relative to the number of mononucleated cells on a total of 500 cells for each dose (250 cells counted per well). The proliferation index (Cytokinesis Blocked Proliferative Index CBPI) was calculated using the following formula:
The cytostasis index (CI %), i.e. the percentage of cell replication inhibition, was calculated using the following formula: CI %−100−{100×(CBPItest material−1)/(CBPIsolvent control−1)}
The rates of micronuclei were evaluated for the presence of independent nuclear core entities in 1000 binucleated cells per well, which corresponds to 2000 cells examined by test substance dose. Micronuclei were identified as small nuclei well differentiated from cell nucleus, stained in the same manner and having a diameter less than one third of that of the cell nucleus.
Micronuclei rates obtained for different doses of test substances were compared to the negative control by a χ2 test. The assay was considered positive if: • A dose-response relationship was obtained between the rate of micronuclei and the doses tested, • At least one of these doses induced a statistically significant increase (P<0.05) in the number of micronucleated cells as compared to the negative control.

[3] = Plasmodium falciparum, 3D7, 48 h
[4] = 3D7, first round, 48-h incubation, strain susceptible to CQ, decreased susceptibility to MQ, read-out: IC50 (nM) Plasmodium falciparum 3D7 (converted)
[5] = W2, first round, 48-h incubation, strain resistant to CQ, sensitive to MQ, read-out: IC50 (nM) Plasmodium falciparum W2 (converted)
[6] = 48 h, read-out: IC50 (nM) Plasmodium falciparum 3D7 (converted)

SMILES | IC50 (P. falciparum 3D7; [3]) | IC50 [2, 4] | IC50 (Plasmodium falciparum W2; [5]) | also measured
C[C@@H]1CC[C@H]2[C@@H](C)C(=O)O[C@@H]3O[C@@]4(C)CC[C@@H]1[C@]32OO4 [Artemisinin] |  |  |  | human t1/2 [1]: 1 h
OC(c1cc(C(F)(F)F)nc2c(C(F)(F)F)cccc12)C1CCCCN1 (stereo not drawn) [MQ, Mefloquine, reference compound] | 32.3 ± 3.2 nM | 79.7 ± 8.5 nM | 31.8 ± 1 nM | 
OC(c1cc(C(F)(F)F)nc2c(C(F)(F)F)cccc12)C1CCCCN1 (racemic) [Mefloquine, mefloquine] |  |  |  | human t1/2 [1]: 2-4 weeks
O[C@H](CNCCCC(F)(F)F)c1cc(-c2ccc(C(F)(F)F)cc2)nc(C(F)(F)F)c1 [Compound 1o, (S)-2-((4,4,4-trifluorobutyl)amino)-1-(2-(trifluoromethyl)-6-(4-(trifluoromethyl)phenyl)pyridin-4-yl)ethan-1-ol] | < 50 nM |  |  | IC50 (P. falciparum 3D7; [6]): 39.3 ± 5.83 nM
O[C@H](CNCCNC(c1ccccc1)c1ccccc1)c1ccc(-c2ccc(C(F)(F)F)cc2)nc1C(F)(F)F [Compound 30i, (S)-2-((2-(Benzhydrylamino)ethyl)amino)-1-(2-(trifluoromethyl)-6-(4-(trifluoromethyl)phenyl)pyridin-3-yl)ethanol] |  | 32.9 nM | 248 ± 36 nM | 
OC(c1cc(-c2ccc(C(F)(F)F)cc2)nc(C(F)(F)F)c1)C1CCCCN1 (racemic) [Enpiroline, reference compound] | 21.6 ± 1.43 nM |  |  | mean half-life [1]: 6 days
c1ccc2c(c1)cc1ccc3cccc4ccc2c1c34 [Benzo-a-pyrene, benzo-a-pyrene, reference compound] |  |  |  | BI (binucleated cells) (CHO-K1 cells): 475; MNC1 (micronucleated cell rate) (CHO-K1 cells): 28 ‰; MNC2 (micronucleated cell rate) (CHO-K1 cells): 25 ‰; MNC-M (mean of micronucleated cell rates) (CHO-K1 cells): 26.5 ± 2.12 ‰; MONO (mononucleated cells) (CHO-K1 cells): 25
CCCCCCCNC[C@H](O)c1ccc(-c2ccc(C(F)(F)F)cc2)nc1C(F)(F)F [Compound 30h, (R)-2-(Heptylamino)-1-(2-(trifluoromethyl)-6-(4-(trifluoromethyl)phenyl)pyridin-3-yl) ethanol] |  | 519 nM | 31.7 nM | 
COC[C@H](Cc1ccccc1)NC[C@@H](O)c1ccc(-c2ccc(C(F)(F)F)cc2)nc1C(F)(F)F [Compound 30k, (S)-2-(((S)-1-methoxy-3-phenylpropan-2-yl)amino)-1-(2-(trifluoromethyl)-6-(4-(trifluoromethyl)phenyl)pyridin-3-yl)ethanol] |  | 65.3 ± 8.4 nM | 351 ± 50.7 nM | 
CCCCN(CCCC)CC(O)c1cc(Cl)cc2c1-c1ccc(Cl)cc1/C2=C/c1ccc(Cl)cc1 (stereo not drawn) [lumefantrine] |  |  |  | human t1/2 [1]: 72 to 96 h
CCN(CC)CCCC(C)Nc1ccnc2cc(Cl)ccc12 (stereo not drawn) [CQ, Chloroquine, reference compound] |  |  |  | IC50 ([2]; 3D7, 48 h, read-out: IC50 (nM) Plasmodium falciparum 3D7): 75.9 ± 3 nM; IC50 (Plasmodium falciparum W2; W2, 48 h, read-out: IC50 (nM) Plasmodium falciparum W2): 199 ± 27 nM
CCCCNC[C@@H](O)c1ccc(-c2ccc(C(F)(F)F)cc2)nc1C(F)(F)F [Compound 30a, (S)-2-(Butylamino)-1-(2-(trifluoromethyl)-6-(4-(trifluoromethyl)phenyl)pyridin-3-yl)ethanol] |  | 479 ± 38.2 nM | 132 ± 10.3 nM | 
O[C@H](CNCCCCCCF)c1cc(-c2ccc(C(F)(F)F)cc2)nc(C(F)(F)F)c1 [Compound 1q, (S)-2-((6-fluorohexyl)amino)-1-(2-(trifluoromethyl)-6-(4-(trifluoromethyl)phenyl)pyridine-4-yl)ethan-1-ol] | < 50 nM |  |  | IC50 (P. falciparum 3D7; [6]): 31.4 nM
COC[C@H](Cc1ccccc1)NC[C@H](O)c1ccc(-c2ccc(C(F)(F)F)cc2)nc1C(F)(F)F [Compound 30l, (R)-2-(((S)-1-methoxy-3-phenylpropan-2-yl)amino)-1-(2-(trifluoromethyl)-6-(4-(trifluoromethyl)phenyl)pyridin-3-yl)ethanol] |  | 414 nM | 258 nM | 
O[C@@H](CNCCNC(c1ccccc1)c1ccccc1)c1ccc(-c2ccc(C(F)(F)F)cc2)nc1C(F)(F)F [Compound 30j, (R)-2-((2-(Benzhydrylamino)ethyl)amino)-1-(2-(trifluoromethyl)-6-(4-(trifluoromethyl)phenyl)pyridin-3-yl)ethanol] |  | 92.1 nM | 171 nM | 

Now from value to compound, other results behind:

IC50 (P. falciparum 3D7; [3]) | IC50 [2, 4] | IC50 (Plasmodium falciparum W2; [5]) | SMILES | also measured
896 nM |  |  | O[C@@H](CN[C@H](COCC1CC1)Cc1ccccc1)c1ccc(-c2ccc(C(F)(F)F)cc2)nc1C(F)(F)F [Compound 30v, (R)-2-(((S)-1-(cyclopropylmethoxy)-3-phenylpropan-2-yl)amino)-1-(2-(trifluoromethyl)-6-(4-(trifluoromethyl)phenyl)pyridin-3-yl)ethan-1-ol] | 
< 50 nM |  | 86.9 nM | O[C@@H](CNCCCN1CCN(C(c2ccccc2)c2ccccc2)CC1)c1cc(-c2ccc(C(F)(F)F)cc2)nc(C(F)(F)F)c1 [Compound 1n, (R)-2-((3-(4-benzhydrylpiperazin-1-yl)propyl)amino)-1-(2-(trifluoromethyl)-6-(4-(trifluoromethyl)phenyl)pyridin-4-yl)ethanol] | 
 | 170 ± 24 nM | 27.2 ± 9.3 nM | CCCCCCNC[C@@H](O)c1ccc(-c2ccc(C(F)(F)F)cc2)nc1C(F)(F)F [Compound 30e, (S)-2-(Hexylamino)-1-(2-(trifluoromethyl)-6-(4-(trifluoromethyl)phenyl)pyridin-3-yl)ethanol] | 
 | 22.4 ± 2.5 nM | 13.1 ± 1 nM | O[C@H](CNCCNC(c1ccccc1)c1ccccc1)c1cc(-c2ccc(C(F)(F)F)cc2)nc(C(F)(F)F)c1 [Compound 1g, (S)-2-((2-(Benzhydrylamino)ethyl)amino)-1-(2-(trifluoromethyl)-6-(4-(trifluoromethyl)phenyl)pyridin-4-yl)ethanol] | 
 | 25 nM | 5.9 nM | O[C@@H](CNCCNC(c1ccccc1)c1ccccc1)c1cc(-c2ccc(C(F)(F)F)cc2)nc(C(F)(F)F)c1 [Compound 1h, (R)-2-((2-Benzhydrylamino)ethylamino)-1-(2-(trifluoromethyl)-6-(4-(trifluoromethyl)phenyl)pyridin-4-yl)ethanol] | 
165 ± 21.9 nM |  |  | O[C@H](CN[C@H](COCC1CC1)Cc1ccccc1)c1ccc(-c2ccc(C(F)(F)F)cc2)nc1C(F)(F)F [Compound 30u, (S)-2-(((S)-1-(cyclopropylmethoxy)-3-phenylpropan-2-yl)amino)-1-(2-(trifluoromethyl)-6-(4-(trifluoromethyl)phenyl)pyridin-3-yl)ethan-1-ol] | 
< 50 nM |  |  | O[C@@H](CNCCCC(F)(F)F)c1cc(-c2ccc(C(F)(F)F)cc2)nc(C(F)(F)F)c1 [Compound 1p, (R)-2-((4,4,4-trifluorobutyl)amino)-1-(2-(trifluoromethyl)-6-(4-(trifluoromethyl)phenyl)pyridin-4-yl)ethan-1-ol] | IC50 (P. falciparum 3D7; [6]): 43 nM
9.31 ± 2.16 nM |  |  | O[C@H](CN[C@H](COCC1CC1)Cc1ccccc1)c1cc(-c2ccc(C(F)(F)F)cc2)nc(C(F)(F)F)c1 [Compound 1u, (S)-2-(((S)-1-(cyclopropylmethoxy)-3-phenylpropan-2-yl)amino)-1-(2-(trifluoromethyl)-6-(4-(trifluoromethyl)phenyl)pyridin-4-yl)ethan-1-ol] | 
 | 1380 nM | 523 nM | CCCCNC[C@H](O)c1ccc(-c2ccc(C(F)(F)F)cc2)nc1C(F)(F)F [Compound 30b] | 
 | 41.8 nM | 7.2 nM | CCCCCNC[C@H](O)c1cc(-c2ccc(C(F)(F)F)cc2)nc(C(F)(F)F)c1 [Compound 1b, (R)-2-(Pentylamino)-1-(2-(trifluoromethyl)-6-(4-(trifluoromethyl)phenyl)pyridin-4-yl)ethanol] | 

— patent US11220482B2, “Aminopyridinemethanol compounds and their use” (UNIVERSITE AMIENS PICARDIE JULES VERNE, priority 2017, dated 2022)
